From article PMC4267622, “Pin1-mediated Sp1 phosphorylation by CDK1 increases Sp1 stability and decreases its DNA-binding activity during mitosis” (Nucleic Acids Research, 2014)

Assays:
[1] = test system: Sp1-binding probe of p21^WAF1/CIP1 promoter; test: DNA affinity precipitation assay (DAPA); conditions: mitotic extract of HeLa cells, 4°C, 1 h, three independent experiments
Method: Cell lysate incubated with 1 μg of binding probes in 500 μl binding of buffer (2 mM MgCl2, 60 mM KCl, 20 mM Tris-HCl pH 7.8, 5% glycerol, 0.5 mM EDTA and 0.02% NP-40). After incubation for 1 h at 4°C, the mixture was incubated with 30 μl of streptavidin-agarose beads (GE Healthcare Life Sciences) for 1 h at 4°C. The mixture was washed three times by binding buffer. The proteins in the beads were eluted by 2X sample buffer and analysed by SDS-PAGE and immunoblotting. The Sp1-binding probe 5′-[…]-3′, localized from −82 to −50 bp within the promoter of p21^WAF1/CIP1, was biotinylated at 5′ termini and then annealed with complementary strands.

[2] = test system: HeLa cells; test: Protein level of GFP-Sp1 constructs in HeLa cells (western blot); assay type: cell-based; conditions: equal amount of plasmids
Method: (§1) HeLa cells and mouse embryonic fibroblasts (MEFs) were cultured in DMEM containing 10% of FBS, 100μg/ml streptomycin sulfate and 100 units/ml penicillin G sodium at 37°C, 5% CO2. For transfection of GFP-Sp1, GFP-Sp1-T739A, GFP-Sp1-T739D, GFP-Sp1 (1-740), GFP-Sp1-4A, GFP-Sp1-4D, HA-Sp1, HA-Sp1-4A (S720A, T723A, T737A and T739A), HA-Sp1-4D (S720D, T723D, T737D and T739D), pGL2, pGL2-p21, Sp1 shRNA, or Pin1 shRNA, 2 μg of plasmids was incubated with 2 μl of Lipofectamine in 200 μl of OPTI-MEM for 30 min in room temperature. After incubation, the mixture of plasmids and Lipofectamine in OPTI-MEM was added into 2 ml of OPTI-MEM. The cells were incubated with the mixture of plasmids and Lipofectamine for 6 h. The cells were then incubated in fresh Dulbecco's modified Eagle's medium (DMEM) for 18 or 36 h. The cells were collected for immunoprecipitation or immunoblotting.
Cell lysates or immunoprecipitation samples were fractionated by sodium dodecyl sulfate-polyacrylamide gel electrophoresis (SDS-PAGE) and transferred to polyvinylidene fluoride (PVDF) membrane using a transfer apparatus according to the manufacturer's protocols (Bio-Rad). After incubation with 3% non-fat milk or 2% bovine serum albumin in Tris-buffered Saline with Tween 20 buffer (TBST buffer, 10 mM Tris-HCl pH 8.0, 150 mM NaCl and 0.5% Tween 20) for 1 h, membranes were incubated with antibodies at 4°C overnight. […]

[3] = test system: RNF4; test: RNF4 co-immunoprecipitation with GFP-Sp1 constructs; assay type: binding; conditions: HeLa, anti-GFP immunoprecipitation, vs full-length Sp1 (1–785)
Method: Cell lysates were prepared by using mRIPA buffer (50 mM Tris-HCl, pH 7.8, 150 mM NaCl, 5 mM ethylenediaminetetraacetic acid (EDTA), 0.1% Triton-X100, 0.05% NP-40). The lysates were incubated with anti-Sp1 (1:500), anti-CDK1 (1:200), anti-Pin1 (1:250), anti-HA tag (1:250), or anti-GFP tag (1:200) antibodies at 4°C for 1 h. After 1 h incubation, the mixture was incubated with Protein A or G Sepharose agarose beads at 4°C for 1 h. The beads were collected and washed three times by mRIPA buffer. The beads were added 2X electrophoresis sample buffer and analysed by immunoblotting.

[4] = test system: p21^CIP/WAP; test: p21^CIP/WAP luciferase activity assay; assay type: cell-based; conditions: HeLa, vs GFP-Sp1 (1–785)
Method: as §1

[5] = test system: HeLa cells; test: Sp1 localisation on chromosomes during mitosis; assay type: cell-based; conditions: nocodazole 16 h
Method: The cells were fixed with 4% paraformaldehyde (Sigma-Aldrich) in PBS according to a method described previously ([3]). Immunostaining was conducted with primary antibodies such as anti-Sp1, anti-GFP tag (Santa Cruz Biotechnology, Santa Cruz, CA), or anti-Pin1 (Calbiochem, San Diego, CA) antibodies. The cells were then treated with Alexa Fluor 488-conjugated goat anti-mouse or rabbit immunoglobulin G (IgG) and Alexa Fluor 568-conjugated goat anti-mouse or rabbit IgG polyclonal antibodies (Jackson ImmunoResearch Laboratories Inc., West Grove, PA). Finally, the cells were mounted in 90% glycerol containing 4'-6-diamidino-2-phenylindole (DAPI) (Invitrogen), and examined using a confocal laser-scanning microscope (FluoView^TM FV 1000; Olympus, Melville, NY) or immunofluorescence microscope (Personal DV Applied Precision, Issaquah, WA). The images were analysed with softWoRx software (Applied Precision Inc.).

[6] = test system: HeLa cells; test: Flow cytometry with PI staining (cell cycle); assay type: cell-based; conditions: nocodazole 16 h
Method: The cells washed by cold PBS and then fixed in 70% alcohol or 4% paraformaldehyde at 4°C for 2 h. After fixation, the cells washed by cold PBS and treated with 0.1% TritonX-100, 10μg/ml RNase and 50 μg/ml propidium iodide for 1 h. The cells were analysed by flow cytometer (Cell Lab Quanta™ SC; Beckman Coulter or FACSCalibur; BD Biosciences).

[7] = test system: Pin1; test: Isothermal titration calorimetry binding of Sp1 peptides to Pin1; conditions: 25°C
Method: (§2) Additionally, two other point mutants of Pin1, K63A and C113A, which are PPIase-activity-deficient, were generated and used in the crystallographic experiments ([42]). For the crystallization and the thermodynamic parameters of Pin1 and Sp1 peptide binding analysis, protein expression and crystallization of Pin1 was performed in slightly modified as described previously ([41]). In brief, the gene for Pin1 was cloned into pET28a with an N-terminal His12-tag and a thrombin cleavage site. R14A, R14A/K63A and R14A/C113A mutants of Pin1 were generated using the PCR-based QuikChange site-directed mutagenesis kit (Agilent). The correct construct was transformed into E. coli BL-21 (DE3) competent cells for protein expression. Transformed BL21 (DE3) bacteria were grown in Luria Bertani (LB) medium containing […] kanamycin at 30°C. Bacteria were induced with 1 mM isopropyl β-D-thiogalactoside (IPTG) overnight at 20°C. Pin1 proteins were purified by Ni^2+-nitrilotriacetic acid affinity chromatography, digested with thrombin and further purified by second run of Ni^2+-nitrilotriacetic acid affinity chromatography. The protein was prepared at 10–20 mg/ml in 10mM HEPES pH 7.5 containing 100 mM NaCl and 1 mM DTT for crystallization. Crystals were grown from a drop composed of 1 ml of protein solution and 1 ml of reservoir solution consisting of 2.0–2.5 M (NH4)2SO4, 1–2% (w/v) PEG 400 and 1–2 mM DTT in 0.1M HEPES buffer pH 7.5 equilibrated at 4°C against 0.5 ml of reservoir solution using the hanging-drop vapor-diffusion method. Crystals of Pin1 in complex with Sp1 peptides were obtained in co-crystallization experiments with the Pin1 protein pre-mixed with 10-fold Sp1 peptide and incubated at 4°C for 4 h before crystallization.
Thermodynamic parameters of Pin1 and Sp1 peptide binding were determined using a Micro-Cal iTC200 (GE Healthcare Life Sciences). All samples were filtered with […] cutoff filters (Millipore). The buffer for Pin1 and Sp1 peptide solutions consisted of 10 mM HEPES pH 7.5, 100 mM NaCl and 1 mM DTT. A […] solution of Sp1 peptide was directly titrated into a solution of […] Pin1 in […] aliquots. The experiments were performed at 25°C. Data were then analysed using the software origin.
To confirm that Pin1 indeed affects the C-terminal conformation of Sp1, Pin1 was purified and oligopeptides of the region 735–745 of Sp1, with or without phosphate at Thr739, were synthesized for ITC and X-ray crystallography experiments (Figure 3). […] Furthermore, two other point mutants of Pin1, K63A and C113A, which are PPIase-activity-deficient, were generated and used in the crystallographic experiments ([42]).
Figure 3. Pin1 recruitment alters the conformation of C-terminal Sp1. (A) The binding analyses of Thr739-Sp1 (left panel) and Thr739(p)-Sp1 (right panel) peptides to Pin1 were determined by ITC. Representative plots from an ITC experiment are shown with raw data in the upper panel and curve fit in the lower panel. The Thr739-Sp1 or Thr739(p)-Sp1 peptides were titrated into the reaction cell containing Pin1 protein. […] The 2Fo–Fc electron density is shown in blue color, contoured at 1σ. […] Overall structure (i) and a close-up view of the active-site pocket of Pin1 (ii). […] Positive charges on the electrostatic surfaces are drawn in blue and negative charges in red.

[8] = test system: Pin1 R14A mutant; test: X-ray crystallography of Sp1 peptide with Pin1 R14A; assay type: binding; conditions: co-crystallization, Pin1 pre-mixed with 10-fold peptide, 4°C for 4 h
Method: as §2, with “Crystals were grown from a drop composed of 1 ml of protein solution and 1 ml of reservoir solution consisting of 2.0–2.5 M (NH4)2SO4, 1–2% (w/v) PEG 400 and 1–2 mM DTT in 0.1M HEPES buffer pH 7.5 equilibrated at 4°C against 0.5 ml of reservoir solution using the hanging-drop vapor-diffusion method. Crystals of Pin1 in complex with Sp1 peptides were obtained in co-crystallization experiments with the Pin1 protein pre-mixed with 10-fold Sp1 peptide and incubated at 4°C for 4 h before crystallization.” left out
(§3) All crystals were flash-cooled to 100 K in a stream of cold nitrogen prior to data collection. […] The electron density was calculated by Refmac5 ([43]). […]

[9] = test system: Pin1 R14A/C113A mutant; test: X-ray crystallography of Sp1 peptide with Pin1 R14A/C113A; assay type: binding; conditions: ablated isomerase activity; co-crystallization, 10-fold peptide, 4°C for 4 h
Method: as §2, with “Crystals were grown from a drop composed of 1 ml of protein solution and 1 ml of reservoir solution consisting of 2.0–2.5 M (NH4)2SO4, 1–2% (w/v) PEG 400 and 1–2 mM DTT in 0.1M HEPES buffer pH 7.5 equilibrated at 4°C against 0.5 ml of reservoir solution using the hanging-drop vapor-diffusion method. Crystals of Pin1 in complex with Sp1 peptides were obtained in co-crystallization experiments with the Pin1 protein pre-mixed with 10-fold Sp1 peptide and incubated at 4°C for 4 h before crystallization.” left out
as §3

Row | Ka ([7]; ITC curve fit, 10 mM HEPES pH 7.5, 100 mM NaCl, 1 mM DTT) | N (stoichiometry of bound Thr739(p)-Sp1 peptide per Pin1 protein) ([7]; ITC curve fit, pH 7.5) | ΔH ([7]; ITC curve fit, pH 7.5) | ΔS ([7]; ITC curve fit, pH 7.5) | Substance | DNA-binding activity to the p21^CIP/WAP promoter [1] | protein level [2] | interaction with RNF4 [3] | transcriptional activity of p21^CIP/WAP [4] | removal from chromosomes during mitosis [5] | cells entered mitosis [6] | interaction with Pin1 ([7]; ITC, 10 mM HEPES pH 7.5, 100 mM NaCl, 1 mM DTT) | configurations of electron density map of bound peptide [8] | configurations of electron density map of bound peptide [9]
1 | – | – | – | – | GFP-Sp1 (1–740): GFP-Sp1 lacking the C-terminal end (741–785) | increased the DNA-binding activity of Sp1 during mitosis | higher than that of GFP-Sp1 (1–785) | decreased interaction between RNF4 and GFP-Sp1 (1–740) | increased the transcriptional activity of p21^CIP/WAP | – | – | – | – | –
2 | – | – | – | – | Sp1-4D: Sp1 mutant S720D, T723D, T737D and T739D | decreased the DNA-binding activity of Sp1 to the p21^CIP/WAP promoter | – | – | – | completely removed from the chromosomes | 75% | – | – | –
3 | 7.4 ± 1.4 × 10^3 M^−1 | 0.93 ± 0.25 | -6.8 ± 2.2 kcal/mol | -5.0 cal/mol/K | Thr739(p)-Sp1 peptide: oligopeptide of the region 735–745 of Sp1, with phosphate at Thr739 | – | – | – | – | – | – | Pin1 could interact with the Thr739(p)-Sp1 peptide | one configuration | two configurations
